Experiments:
[1] = test system: capillary circulation of the skin; experiment: Laser Doppler study in five human subjects, 10,000 ppm NO formulation vs controls (Example 7); type: in vivo; details: positive control formulation containing 0.1% methyl nicotinate
From the text: This example illustrates delivery of nitric oxide formulations to five human subjects, using procedures and formulations similar to those discussed in Example 5. Each person served as their own control for the testing. A Moor Instruments Laser Doppler was used to determine circulation. […] The formulations used produce positive, almost immediate results when applied to the skin which, in these studies, was manifested by vasodilatation of the cutaneous vascular system.
For each subject, the following creams were applied: a negative control formulation (containing no NO), 0.010 gram of a 10,000 ppm NO formulation, 0.020 gram of a 10,000 ppm NO formulation, and a positive control formulation containing 0.1% methyl nicotinate. The formulations were prepared using procedures similar to those discussed in Example 1.

[2] = test system: micro-capillary blood flow to skin; experiment: Laser Doppler study with covered chamber in three human female subjects, 10,000 ppm NO (Example 5); type: in vivo; details: applied to the skin at 1/10% in alcohol
From the text: While nitric oxide has many physiological effects, the purpose of these studies was to measure physiological effects that would be relatively easy to determine, and which would be noninvasive. […] Nitric oxide is capable of […] the capillary bed, and thus, laser Doppler was selected.
The formulation used in these studies contained nitric oxide dispersed in a lipid matrix. […] Nitric oxide is a very rapid acting molecule, and these studies used a system that employed laser Doppler with a covered chamber. The formulation was placed into the chamber and then attached to the skin by an adhesive layer on the covering. This provided a stable measuring device as determined by multiple normal evaluations of the capillary blood flow without treatment of nitric oxide.
A known positive control, methyl nicotinate, was applied to the skin at a concentration of 1/10% in alcohol. […] The vascular dynamics are such that when the blood vessels dilate physical parameters follow Bernoulli's law. […] The laser Doppler device accurately measured these parameters. […]
A Moor Instruments DRT4 Laser Doppler Blood Flow Monitor (Devon, England) was used in these studies. The laser Doppler technique measured blood flow in the microcapillaries of the skin that are close to the skin surface and the blood flow in underlying arterioles and venules that help to regulate skin temperature. […]

COC(=O)c1cccnc1 [methyl nicotinate]
vasodilatation (laser Doppler) [1]: vasodilatation was observed | laser Doppler response of positive control [2]: rapid response typical of the vasodilator

Source: patent US9844565B2, “Systems and methods for treatment of acne vulgaris and other conditions with a topical nitric oxide delivery system” (priority 2012, dated 2017)
